Data on one substance can be found in patent US20110288017A1, “APO-LIPOPROTEIN PROPEPTIDE” (priority 2010, published 2011).

One experiment deals with Zucker rat liver cells. Put plainly: Confocal microscopy of liver cells treated with fluorescently labeled propeptide. The format is cell-based. The source says: (§1) A peptide with the amino acid sequence WEFWQQ (corresponding to the rat sequence of the Apo AI propeptide) containing a fluorescein group attached to the N-terminus was custom synthesized by Cambridge biochemical reagents. Synthetic version of the peptide was made using standard Merrifield peptide synthesis techniques (http://en.wikipedia.org/wiki/Peptide_synthesis). Other standard techniques that would apply here would be the use of bacteria to synthesize large quantities of the peptide (http://en.wikipedia.org/wiki/Recombinant_DNA).
(§2) Liver tissue was obtained from lean Zucker rats and placed in liver digest media. The liver digest media was then drained into a conical vial and the liver was placed in another sterile beaker of hepatozyme wash media. Clean gauze was placed at the opening to the conical vials and the liver was washed with the hepatozyme wash media yet again. This process filtered the liver cells into the conical vials. The cells were centrifuged for five minutes at 6000 rpm. The cells were washed thoroughly with hepatozyme wash media and then resuspended in 5% Fetal Bovine Serum, 2 mM glutamine hepatozyme wash medium and pipetted into collagen wells. The collagen well plates were incubated at 37° Celsius and 5% CO2. After 19 hours, the media was replaced with clean, fresh Hepatozyme-SFM (3 mL). The media was further supplemented with L-glutamine (2 mM) after 23 hours. […]

The target of the next experiment is T1, oxysterol receptor LXRβ (Rattus norvegicus, UniProt Q62755).
T1 construct: Liver tissue from a lean Zucker rat was lysed; from tissue; host or cells: liver of lean Zucker rat (lysate, CellLytic-MT buffer)
T1 sequence (Q62755 1-446): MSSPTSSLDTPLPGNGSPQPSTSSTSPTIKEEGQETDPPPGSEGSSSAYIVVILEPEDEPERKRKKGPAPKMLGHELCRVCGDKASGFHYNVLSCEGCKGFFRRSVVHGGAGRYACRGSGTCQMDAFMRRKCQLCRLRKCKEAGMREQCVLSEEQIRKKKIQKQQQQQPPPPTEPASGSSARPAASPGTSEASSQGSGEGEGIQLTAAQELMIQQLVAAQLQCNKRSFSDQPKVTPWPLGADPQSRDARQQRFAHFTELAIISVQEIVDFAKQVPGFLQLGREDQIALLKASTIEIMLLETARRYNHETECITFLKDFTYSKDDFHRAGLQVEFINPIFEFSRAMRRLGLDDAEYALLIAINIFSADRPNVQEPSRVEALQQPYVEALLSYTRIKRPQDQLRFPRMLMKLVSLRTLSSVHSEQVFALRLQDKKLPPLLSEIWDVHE
The experiment in a line: Peptide bead pull-down from liver lysate, SDS-PAGE, MALDI-TOF peptide mass fingerprint. The experiment is classed as binding. The conditions noted are these: lean Zucker rat liver lysate; peptide attached to benzyloxybenzylbromide resin at N-terminus; Mascot search; FIG. 6. The text has this:
The Apo AI propeptide was attached to benzyloxybenzylbromide resin at its N-terminus. Rat liver tissue was lysed using CellLytic-MT lysis buffer using the procedure outlined above. This buffer may be purchased from Sigma-Aldrich Corp. (“Sigma”) (St. Louis, Mo.). […] The protein lysate was removed and added to the peptide modified beads. The solution was shaken for one hour; the supernatant was then removed leaving only the resin beads. The resin beads were washed three times with PBS, and then 30 μl of gel loading solution was added to the resin beads. The solution was heated at 100° C. for five minutes and then loaded onto a polyacrylamide gel (4-20% polyacrylamide) and separated by SDS-PAGE.
Protein bands of interest were cut from the gel and digested with trypsin overnight following the procedure used at University of California, San Francisco (http://donatello.ucsf.edu/ingel.html). The peptide fragments were analyzed on a Bruker MALDI-TOF mass spectrometer which provided the peptide fragment molecular weight maps of the proteins for protein identification.
Another set of experiments were designed to determine the identity of any proteins capable of binding to the Apo AI propeptide. The Apo AI propeptide, WEFWQQ, was attached to benzyloxybenzylbromide resin beads at its N-terminus. […]

The subject of another experiment is human epithelial cells. The experiment in a line: Confocal microscopy of epithelial cells treated with fluorescently labeled propeptide. The experiment is classed as cell-based.
Text: as §1, §2

Experiment [1] is described as follows: Modified Western blot: native PAGE gel of liver lysate incubated with fluorescent propeptide. The conditions noted are these: FIG. 4. The format is binding, rat. The text has this: (§3) Rat liver tissue from an old (23 months) rat and mouse liver tissue from a young mouse (3 months) was obtained from Dr. Eric R. Blough (Biology department, Marshall University, Huntington, W. Va.). 0.104 g of liver tissue from the young mouse and 0.20 g of tissue from the old rat were placed in separate microcentrifuge tubes and washed thoroughly with phosphate buffered saline (“PBS”).
(§4) Rat liver tissue was lysed using CellLytic-MT lysis buffer (Sigma) following the procedure provided from Sigma. Along with the lysis buffer, a protease inhibitor cocktail containing pepstatin, aprotinin, and leupeptin was added. The samples were then centrifuged for 15 minutes at 14,000 rpm. Supernatant containing the cellular proteins was pulled from the samples and centrifuged for another 10 minutes.
(§5) Proteins from the lysate were separated by Native PAGE on a 12% polyacrylamide gel. The gel was run using Tris/Glycine running buffer for one hour at 200 V.
(§6) After protein separation by PAGE was complete, a picture of the gel was taken using an ultraviolet (“UV”) lamp to excite any fluorescent molecules. The UV exposure time was 20 s. The gel was then incubated with the fluorescent labeled Apo AI propeptide in Tris buffered saline with 5% Tween (“TBST”) overnight on a rocking platform. Another picture of the gel was taken using the same UV exposure time as the initial picture. […]
On the technique in general: Immunoblotting shows a protein as a band on a membrane.

Assay in experiment [2]: as above
The format is binding. The settings on record: young mouse (3 months) liver lysate, FIG. 5 Arrow 1.
Text: as §3, §4, §5, §6

Take “WEFWQQ (PROPEP (1)..(6); listed as Rattus norvegicus)”: the “entry of the propeptide into cells and nucleus (confocal image)” value in the experiment on Zucker rat liver cells (Zucker rat liver cells, peptide labeled at N-terminus with fluorescein, FIG. 1) is “clearly entering the cells and entering the nucleus of the cells”. The “time to entry into cells after peptide application” value is on record as “within seconds” in the experiment with Zucker rat liver cells (liver cells, fluorescently labeled peptide) and “within seconds” with human epithelial cells. Moreover, the “identity of the protein bound to the peptide beads (band at about 45 kDa)” value with oxysterol receptor LXRβ was “identified the protein as the oxysterol receptor LXRβ”. The “binding to a protein on the gel (new fluorescent band after incubation)” value in experiment [1] (old rat (23 months) liver lysate, overnight incubation) is “binding to a protein on the gel”. Also, the “fluorescence of higher molecular weight band (possibly DNA) after peptide incubation” value in experiment [1] (old rat liver lysate) is “increase in the fluorescence intensity of a higher molecular weight band”. In experiment [2], the “fluorescent band after incubation with the peptide” value is on record as “same band as was seen in FIG. 4”.
